Test results: patent publication US20200010482A1, “INHIBITORS OF BETA SECRETASE” (Janssen Pharmaceutica NV, priority 2017, published 2020)

Columns and labels:
[1] = test system: Abeta 1-42 produced and secreted by SKNBE2 cells expressing hAPP695; test: Cellular αLisa assay in SKNBE2 cells, Abeta 1-42; assay type: cell-based, human; details: SKNBE2 cells expressing hAPP695, 18 hours incubation; for IC50: Homo sapiens, SKNBE2, 18 h, read-out: CELLULAR αLISA ASSAY IN SKNBE2 CELLS ABETA 42 PIC50 (converted)
Procedure, shortened: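 Human neuroblastoma SKNBE2 cells expressing wild-type hAPP695 treated with compound for 18 h; secreted Abeta total or Abeta 1-42 in medium measured by sandwich αLisa (AbN/25 with Ab4G8 or cAb42/26), read after 1 h. IC50 from least-squares fit of % Controlmin, normalised to untreated and no-antibody controls.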

[2] = target: T1, BACE1 (Homo sapiens, UniProt P56817); test: BACE1 biochemical FRET based assay; details: recombinant BACE1 0.04 μg/ml, 20 μM substrate, 450 min, pH 5.0; for IC50: read-out: BIOCHEMICAL FRET BASED ASSAY pIC50 (converted)
T1 construct: recombinant BACE1 protein in a final concentration of 0.04 μg/ml
Procedure, shortened: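 Recombinant BACE1 (0.04 μg/ml final) incubated 450 min at room temperature with 20 μM Mca/Dnp-labelled 13-mer Swedish APP peptide in 50 mM citrate pH 5.0, 0.05% PEG. Fluorescence (ex 320/em 405 nm) at 450 min minus early baseline Tx; IC50 fitted from % Controlmin versus concentration.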

[3] = target: T2, BACE2 (Homo sapiens, UniProt Q9Y5Z0); test: BACE2 biochemical FRET based assay; details: recombinant BACE2 0.4 μg/ml, 10 μM substrate, 450 min, pH 5.0; for IC50: read-out: BIOCHEMICAL FRET BASED ASSAY pIC50 (converted)
T2 construct: recombinant BACE2 protein in a final concentration of 0.4 μg/ml
T2 sequence (Q9Y5Z0 63-518): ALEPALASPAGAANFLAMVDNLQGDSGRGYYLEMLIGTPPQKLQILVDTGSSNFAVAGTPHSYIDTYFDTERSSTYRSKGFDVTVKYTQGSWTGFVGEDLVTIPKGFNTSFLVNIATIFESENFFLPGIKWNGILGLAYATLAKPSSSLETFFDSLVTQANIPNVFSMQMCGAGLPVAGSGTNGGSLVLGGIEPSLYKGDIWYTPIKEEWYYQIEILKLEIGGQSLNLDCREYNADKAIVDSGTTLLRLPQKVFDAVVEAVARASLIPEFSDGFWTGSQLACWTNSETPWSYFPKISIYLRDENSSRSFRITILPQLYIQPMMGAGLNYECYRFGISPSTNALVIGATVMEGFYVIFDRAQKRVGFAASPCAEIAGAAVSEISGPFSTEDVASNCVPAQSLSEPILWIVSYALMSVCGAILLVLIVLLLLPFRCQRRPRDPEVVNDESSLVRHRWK
Procedure, shortened: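 Recombinant enzyme (0.4 μg/ml final) incubated 450 min at room temperature with 10 μM Mca/Dnp-quenched Swedish-mutant APP peptide in 50 mM citrate pH 5.0, 0.05% PEG, no DMSO. Fluorescence (ex 320/em 405 nm) change from T0 to T450 normalised to no-enzyme and enzyme controls; IC50 from least-squares curve fit.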

T1 sequence (P56817 46-501): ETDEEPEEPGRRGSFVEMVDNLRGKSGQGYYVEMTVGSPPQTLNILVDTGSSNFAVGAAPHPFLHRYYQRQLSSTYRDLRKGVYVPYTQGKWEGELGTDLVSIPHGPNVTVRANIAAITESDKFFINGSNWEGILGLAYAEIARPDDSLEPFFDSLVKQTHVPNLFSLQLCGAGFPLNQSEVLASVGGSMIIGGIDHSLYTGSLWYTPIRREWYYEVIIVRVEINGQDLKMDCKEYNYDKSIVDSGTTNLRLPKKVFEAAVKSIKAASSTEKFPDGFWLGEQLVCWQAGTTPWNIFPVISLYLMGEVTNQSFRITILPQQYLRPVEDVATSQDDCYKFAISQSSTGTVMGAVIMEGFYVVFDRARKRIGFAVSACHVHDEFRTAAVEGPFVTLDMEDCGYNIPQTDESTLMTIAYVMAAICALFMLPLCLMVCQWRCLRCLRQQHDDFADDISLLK

BIOCHEMICAL FRET BASED ASSAY pIC50 [2]	BIOCHEMICAL FRET BASED ASSAY pIC50 [3]	IC50 [1] [nM]	IC50 [2] [nM]	IC50 [3] [nM]	SMILES	CELLULAR αLISA ASSAY IN SKNBE2 CELLS ABETA 42 PIC50 [1]
8.26	6.9				COc1ncc(-c2cc(Cl)ccc2C)c2c1C[C@]1(c3ccc(F)cc3F)N=C(N)SC[C@@H]1C2 [Compound 60]	7.25
8.81	8.43				COc1ncc(-c2ccccc2)c2c1C[C@]1(c3ccc(F)cc3F)N=C(N)SC[C@@H]1C2 [Compound 49]	8.56
		41.7	178	240	COc1ncc(C#N)c2c1C[C@]1(c3ccccc3F)N=C(N)SC[C@@H]1C2 (racemic) [Compound 22]	
		5.89	8.71	195	COc1cc(C)c(-c2cnc(OC)c3c2C[C@H]2CSC(N)=N[C@@]2(c2ccc(F)cc2F)C3)cn1 [Compound 106]	
8.45	7.4				COc1ncc(-c2ccccc2C)c2c1C[C@]1(c3ccc(F)cc3F)N=C(N)SC[C@@H]1C2 [Compound 55]	7.99
		5.62	10.2	6.61	COC/C=C/c1cnc(OC)c2c1C[C@H]1CSC(N)=N[C@@]1(c1ccc(F)cc1F)C2 [Compound 47]	
